Test system: Bifidobacterium breve YIT 12272 (BbY)
Test: Culture of BbY in skimmed milk culture medium with L-cystine or L-cysteine (simultaneous / individual heating)
Type: cell-based
Settings: for growth rate of the viable cell count, simultaneous versus individual heating (growth curve): final concentration 0.03% (w/v), FIG. 2; for viable cell count and acidity versus culture medium not containing L-cystine and L-cysteine: simultaneous heating culture medium (skimmed milk or whey), 0.001 to 0.1% (w/v), FIGS. 3 and 4; for concentration at which the viable cell count was maximum: skimmed milk simultaneous heating culture medium, culture time 9 hours
Description: Bifidobacterium breve YIT 12272 (hereinafter, referred to as BbY), Bifidobacterium bifidum YIT 10347 (hereinafter, referred to as BF-1), Lactobacillus casei YIT 9029 (hereinafter, referred to as YIT 9029), and Lactobacillus acidophilus YIT 0198 (hereinafter, referred to as YIT 0198) were used.
A skimmed milk powder (ABC, manufactured by MEGMILK SNOW BRAND Co., Ltd.) was dissolved in RO water at 12% (w/v), the solution was dispensed in 10 mL aliquots in a rimmed medium-sized test tube while replacing the headspace with nitrogen gas and sealed with a butyl rubber stopper. […] In addition, a skimmed milk culture medium (simultaneous heating culture medium) was prepared in anaerobic conditions by adding an L-cystine (manufactured by Kyowa Hakko Bio Co., Ltd.) aqueous suspension or an L-cysteine hydrochloride (manufactured by Nichiri Kagaku Co., Ltd.) aqueous solution to a skimmed milk culture medium at a final concentration of 0.05 (w/v) % and performing heat sterilization after the addition of the suspension or the solution, and a skimmed milk culture medium (individual heating culture medium) was prepared in anaerobic conditions by adding the suspension or the solution to a skimmed milk culture medium at a final concentration of 0.05 (w/v) % after heat sterilization and immediately before inoculation. Here, the L-cystine aqueous suspension and the L-cysteine hydrochloride aqueous solution were prepared as a 5% (w/v) aqueous suspension and a 5% (w/v) aqueous solution, respectively, and were added to each culture medium at an amount of 1% (v/v). In order to unify the changes in the concentration and the changes in the redox potential of samples due to the addition of the solution, 1% (v/v) of sterilized water was added to the simultaneous heating culture medium immediately before inoculation, to the individual heating culture medium before heating, and to the additive-free culture medium before heating and immediately before inoculation, i.e., twice.
When bacteria were inoculated, inoculation was performed while replacing the headspace of the container with nitrogen gas, and the nitrogen gas was sealed with a butyl rubber stopper, followed by culture. The culture was performed in a thermostat water bath set to 37° C. for 12 hours.
The pH of a culture medium or a bacterial solution was measured using a desk-top pH meter (F52, manufactured by HORIBA, Ltd.).
The amount of a 0.1 N sodium hydroxide aqueous solution for 9.0 g of a bacterial solution required to reach a pH of 8.5 was defined as acidity. The measurement was performed using an automatic titrator (manufactured by HIRANUMA Co., Ltd.).
Regardless of the bacterial strain, a bacterial solution was appropriately diluted with a 0.85% (w/v) sodium chloride aqueous solution (physiological saline solution). The diluted bacterial solution was inoculated with a spiral plater EDDY JET (manufactured by IUL Instruments GmbH) on a plate culture medium of TOS propionate agar medium (manufactured by Yakult Pharmaceutical Industry Co., Ltd.) in the case of bacteria of the genus Bifidobacterium and a plate culture medium of BCP Added Plate Count medium (manufactured by EIKEN CHEMICAL CO., LTD.) in the case of bacteria of the genus Lactobacillus, followed by culture at 37° C. for 48 to 72 hours. The grown colonies were counted as the viable cell count. The bacteria of the genus Lactobacillus were cultured in aerobic conditions, and the bacteria of the genus Bifidobacterium were cultured in anaerobic conditions (Anaero Pack, manufactured by MITSUBISHI GAS CHEMICAL COMPANY, INC.). Colonies were counted using a colony counter ProtoCOL (manufactured by Synoptics Ltd.).
As in Example 1, each simultaneous heating culture medium of milk and L-cystine or L-cysteine was prepared. The addition concentration of L-cystine or L-cysteine was adjusted to 0.001, 0.003, 0.005, 0.01, 0.03, 0.05, or 0.1% (w/v) as the final concentration. […]

[1] = BbY, milk, L-cysteine 0.03% (w/v), filter sterilization (0.22 μm, no heating), culture time 9 h
[2] = BbY, milk, L-cysteine 0.03% (w/v), filter sterilization (0.22 μm, no heating), culture time 12 h
[3] = BbY, milk, L-cysteine 0.03% (w/v), individual heating, culture time 9 h
[4] = BbY, milk, L-cysteine 0.03% (w/v), individual heating, culture time 12 h
[5] = BbY, milk, L-cysteine, simultaneous heating, culture time 9 h
[6] = BbY, milk, L-cysteine, simultaneous heating, culture time 12 h
[7] = BbY, skimmed milk, 0.05 (w/v) %, cultured 12 hours
[8] = BbY, skimmed milk, L-cystine 0.03% (w/v), 115° C. for 30 min, after heat sterilization (individual heating), 12 hours
[9] = BbY, skimmed milk, L-cystine 0.03% (w/v), 115° C. for 30 min, before heat sterilization (simultaneous heating), 12 hours
[10] = BbY, skimmed milk, L-cystine 0.03% (w/v), 121° C. for 30 min, after heat sterilization (individual heating), 12 hours
[11] = BbY, skimmed milk, L-cystine 0.03% (w/v), 121° C. for 30 min, before heat sterilization (simultaneous heating), 12 hours

In the case of `Cl.N[C@@H](CS)C(=O)O` [L-cysteine, L-cysteine hydrochloride], the “growth rate of the viable cell count, simultaneous versus individual heating (growth curve)” value (BbY) is reported as “higher in the case of the simultaneous heating”, the Acidity [1] is reported as 3.62 ml/9 g and the Viable cell count [1] is reported as 8.92 × 10^8 CFU/ml. For the same molecule, the pH [1] was 5.40, the Acidity [2] was 5.12 ml/9 g and the Viable cell count [2] was 1.64 × 10^9 CFU/ml. For the same molecule, the pH [2] was 4.94, the Acidity [3] was 3.59 ml/9 g and the Viable cell count [3] was 7.77 × 10^8 CFU/ml. For the same molecule, the pH [3] was 5.42, the Acidity [4] was 5.04 ml/9 g and the Viable cell count [4] was 1.78 × 10^9 CFU/ml. For the same molecule, the pH [4] was 5.02, the Acidity [5] was 4.47 ml/9 g and the Viable cell count [5] was 1.34 × 10^9 CFU/ml. The pH [5] was 5.17, the Acidity [6] was 8.05 ml/9 g and the Viable cell count [6] was 3.46 × 10^9 CFU/ml. The pH [6] was 4.64, the “viable cell count and acidity versus culture medium not containing L-cystine and L-cysteine” value (BbY) was “increased” and the “concentration at which the viable cell count was maximum” value (BbY) was 0.03 % (w/v). The “promotion of growth by simultaneous heating with milk” value (FIGS. 1 and 2) was “promotion of growth was observed” and the “difference in the culture state of BbY, individual heating versus filter sterilization” value (L-cysteine added to milk at 0.03% (w/v)) was “no difference”.

`N[C@@H](CSSC[C@H](N)C(=O)O)C(=O)O` [L-cystine] was tested, and the “growth rate of the viable cell count, simultaneous versus individual heating (growth curve)” value (BbY) was “higher in the case of the simultaneous heating”, the “viable cell count and acidity versus culture medium not containing L-cystine and L-cysteine” value (BbY) was “increased” and the “concentration at which the viable cell count was maximum” value (BbY) was 0.01 % (w/v). The “acidity higher with simultaneous heating than individual heating” value [7] was 1.3 mL/9 g, the “viable cell count increase compared to absence of L-cystine” value [7] was 5.6 times and the “viable cell count, simultaneous heating versus individual heating” value [7] was “the same”. For the same molecule, the Acidity [8] was 3.82 mL/9 g, the Viable cell count [8] was 1.29 × 10^9 CFU/mL and the pH [8] was 5.34. The Acidity [9] was 5.40 mL/9 g, the Viable cell count [9] was 1.89 × 10^9 CFU/mL and the pH [9] was 5.00. For the same molecule, the Acidity [10] was 4.00 mL/9 g, the Viable cell count [10] was 1.12 × 10^9 CFU/mL and the pH [10] was 5.26. For the same molecule, the Acidity [11] was 5.42 mL/9 g, the Viable cell count [11] was 1.86 × 10^9 CFU/mL and the pH [11] was 4.96.

Reference: US12534699B2, “Method for promoting growth of bacteria of genus Bifidobacterium” (KABUSHIKI KAISHA YAKULT HONSHA, priority 2019, dated 2026)
